System: anesthetized open-chest dogs
Assay: Hemodynamics of anesthetized open-chest dogs, intravenous infusion
Format: in vivo, mongrel dogs
Procedure: The animals were anesthetized by intravenous injection of 30 mg/kg sodium pentobarbital, tracheally intubated, and mechanically ventilated with positive air pressure. Left thoracotomy was performed through the fourth intercostal space and the heart was suspended in a pericardial cradle, the aortic root was isolated and a probe of blood flow meter (12 or 14 mm in diameter) was fixed to measure the aortic blood flow as a representation of cardiac output (CO), the circumflex branch of left coronary artery was isolated and a probe of blood flow meter (2 or 2.5 mm in diameter) was fixed to measure the coronary blood flow (CBF). A polyethylene catheter filled with heparin physiological saline was inserted through cardiac apex into the left ventricle to measure the left ventricular pressure (LVP) and left ventricular end-diastolic pressure (LVEDP), Peak positive and peak negative first derivatives of the LVP (+ LVdp/dt and − LVdp/dt) were calculated with the Acknowledge software. The systolic blood pressure (SBP), diastolic blood pressure (DBP) and mean arterial pressure (MAP) were measured by polyethylene catheter via the femoral artery, ECG □ was measured by a AC-601G ECG amplifier. The above-mentioned analog signal was input into a data acquisition workstation (MP100, BIOPAC Systems, USA) to a computer running Acknowledge (version 3.7.1).
After surgery, various indexes before administration were recorded until the indexes were stable, and then intravenous infusion administration was conducted. Thirty dogs were divided into five groups (six dogs in each group), the experiment groups were given 0.15, 0.3, 0.6 mg/kg of ASP-[…] respectively, the normal control group was given 1 ml/kg of solvent, and the positive control group was given 0.3 mg/kg of astragaloside IV. The delivery volumes were 15 ml for each dog was and the delivery velocity was 1 ml/min. The indexes were recorded at 5, 10, 15, 20, 30, 45, 60, 90 and 120 mins after drug administration. At the end of experiment, the hearts were excised and weighted. The myocardial blood flow for per hectogram (CF), coronary resistance (CR), cardiac index (CI), left ventricular work (LVW) and total peripheral resistance (TPR) were calculated according to the following formulae: CF=CBF×[…]/heart weight CR=MAP/CF CI=CO/0.11×(body weight)^2/3 LVW=CO×(MAP−5)×1.052×0.0136 TPR=MAP×79.92/CO
Data are expressed as mean±SD ( x±s), the paired t-test was used to compare the significance between before and after administration, the unpaired t-test was adopted for comparison between groups.

[1] = 0.6 mg/kg iv, 15 min after administration
[2] = 0.6 mg/kg iv, 20 min after administration
[3] = 0.6 mg/kg iv, 30 min after administration
[4] = 0.6 mg/kg iv, 45 min after administration
[5] = 0.6 mg/kg iv, 60 min after administration
[6] = 0.6 mg/kg iv, 90 min after administration
[7] = 0.6 mg/kg iv, 120 min after administration
[8] = 0.6 mg/kg iv, before administration
[9] = 0.15, 0.3 and 0.6 mg/kg iv, within 120 min

CC(C)(O)[C@@H]1CC[C@](C)([C@H]2[C@@H](O)C[C@@]3(C)C4C[C@H](OC5OC(CO)C(O)C(O)C5O)C5C(C)(C)[C@@H](O)CC[C@@]56C[C@@]46CC[C@]23C)O1 (stereo partly drawn) [CMG, Cycloastragenol-6-O-β-D-glucoside]
LVW change vs before administration [1]: (0.06 ± 0.13) kg · m
TPR [1]: 5249 ± 2234 dyn · s/cm^5
TPR change vs before administration [1]: (−258 ± 392) dyn · s/cm^5
dp/dt [1]: 1199 ± 288 mmHg/s
dp/dt change vs before administration [1]: (95 ± 56) mmHg/s
−dp/dt [1]: −851 ± 196 mmHg/s
−dp/dt change vs before administration [1]: (2 ± 98) mmHg/s
CF [2]: 49.8 ± 8.0 ml/min/100 g
CF change vs before administration [2]: (−1.4 ± 1.4) ml/min/100 g
CI [2]: 2.05 ± 0.41 L/min/m^2
CI change vs before administration [2]: (0.09 ± 0.18) L/min/m^2
CO [2]: 1.19 ± 0.34 L/min
CO change vs before administration [2]: (0.05 ± 0.10) L/min
CR [2]: 1.48 ± 0.36 mmHg/ml/min/100 g
CR change vs before administration [2]: (0.06 ± 0.10) mmHg/ml/min/100 g
LVEDP [2]: 1.2 ± 1.6 mmHg
LVEDP change vs before administration [2]: (−1.5 ± 0.54) mmHg
LVP [2]: 107 ± 17 mmHg
LVP change vs before administration [2]: (0.4 ± 3.9) mmHg
LVW [2]: 1.13 ± 0.35 kg · m
LVW change vs before administration [2]: (0.06 ± 0.17) kg · m
TPR [2]: 5176 ± 1818 dyn · s/cm^5
TPR change vs before administration [2]: (−331 ± 534) dyn · s/cm^5
dp/dt [2]: 1276 ± 339 mmHg/s
dp/dt change vs before administration [2]: (172 ± 151) mmHg/s
−dp/dt [2]: −842 ± 220 mmHg/s
−dp/dt change vs before administration [2]: (10 ± 91) mmHg/s
CF [3]: 50.7 ± 8.5 ml/min/100 g
CF change vs before administration [3]: (−0.5 ± 4.0) ml/min/100 g
CI [3]: 2.05 ± 0.57 L/min/m^2
CI change vs before administration [3]: (0.09 ± 0.12) L/min/m^2
CO [3]: 1.20 ± 0.43 L/min
CO change vs before administration [3]: (0.05 ± 0.07) L/min
CR [3]: 1.46 ± 0.38 mmHg/ml/min/100 g
CR change vs before administration [3]: (0.04 ± 0.08) mmHg/ml/min/100 g
LVEDP [3]: 1.3 ± 1.5 mmHg
LVEDP change vs before administration [3]: (−1.4 ± 0.6) mmHg
LVP [3]: 107 ± 17 mmHg
LVP change vs before administration [3]: (0.9 ± 5.6) mmHg
LVW [3]: 1.15 ± 0.45 kg · m
LVW change vs before administration [3]: (0.07 ± 0.13) kg · m
TPR [3]: 5406 ± 2485 dyn · s/cm^5
TPR change vs before administration [3]: (−101 ± 366) dyn · s/cm^5
dp/dt [3]: 1232 ± 274 mmHg/s
dp/dt change vs before administration [3]: (128 ± 108) mmHg/s
−dp/dt [3]: −833 ± 243 mmHg/s
−dp/dt change vs before administration [3]: (20 ± 96) mmHg/s
CF [4]: 50.4 ± 7.8 ml/min/100 g
CF change vs before administration [4]: (−0.8 ± 4.7) ml/min/100 g
CI [4]: 1.97 ± 0.30 L/min/m^2
CI change vs before administration [4]: (0.01 ± 0.26) L/min/m^2
CO [4]: 1.15 ± 0.27 L/min
CO change vs before administration [4]: (0.00 ± 0.15) L/min
CR [4]: 1.48 ± 0.35 mmHg/ml/min/100 g
CR change vs before administration [4]: (0.06 ± 0.16) mmHg/ml/min/100 g
LVEDP [4]: 1.3 ± 1.7 mmHg
LVEDP change vs before administration [4]: (−1.41 ± 0.81) mmHg
LVP [4]: 106 ± 16 mmHg
LVP change vs before administration [4]: (0.2 ± 5.2) mmHg
LVW [4]: 1.1 ± 0.29 kg · m
LVW change vs before administration [4]: (0.03 ± 0.23) kg · m
TPR [4]: 5337 ± 1723 dyn · s/cm^5
TPR change vs before administration [4]: (−170 ± 595) dyn · s/cm^5
dp/dt [4]: 1181 ± 320 mmHg/s
dp/dt change vs before administration [4]: (77 ± 53) mmHg/s
−dp/dt [4]: −842 ± 170 mmHg/s
−dp/dt change vs before administration [4]: (10 ± 126) mmHg/s
CF [5]: 50.2 ± 11.6 ml/min/100 g
CF change vs before administration [5]: (−1.0 ± 6.9) ml/min/100 g
CI [5]: 2.04 ± 0.36 L/min/m^2
CI change vs before administration [5]: (0.08 ± 0.24) L/min/m^2
CO [5]: 1.19 ± 0.32 L/min
CO change vs before administration [5]: (0.04 ± 0.13) L/min
CR [5]: 1.53 ± 0.47 mmHg/ml/min/100 g
CR change vs before administration [5]: (0.11 ± 0.26) mmHg/ml/min/100 g
LVEDP [5]: 1.6 ± 1.6 mmHg
LVEDP change vs before administration [5]: (−1.05 ± 0.76) mmHg
LVP [5]: 105 ± 14 mmHg
LVP change vs before administration [5]: (−0.8 ± 7.7) mmHg
LVW [5]: 1.17 ± 0.40 kg · m
LVW change vs before administration [5]: (0.10 ± 0.20) kg · m
TPR [5]: 5170 ± 1416 dyn · s/cm^5
TPR change vs before administration [5]: (−336 ± 1012) dyn · s/cm^5
dp/dt [5]: 1199 ± 294 mmHg/s
dp/dt change vs before administration [5]: (95 ± 76) mmHg/s
−dp/dt [5]: −829 ± 157 mmHg/s
−dp/dt change vs before administration [5]: (24 ± 167) mmHg/s
CF [6]: 48.6 ± 7.2 ml/min/100 g
CF change vs before administration [6]: (−2.6 ± 2.8) ml/min/100 g
CI [6]: 2.09 ± 0.53 L/min/m^2
CI change vs before administration [6]: (0.13 ± 0.20) L/min/m^2
CO [6]: 1.22 ± 0.40 L/min
CO change vs before administration [6]: (0.07 ± 0.12) L/min
CR [6]: 1.52 ± 0.37 mmHg/ml/min/100 g
CR change vs before administration [6]: (0.11 ± 0.12) mmHg/ml/min/100 g
LVEDP [6]: 1.3 ± 1.4 mmHg
LVEDP change vs before administration [6]: (−1.35 ± 0.72) mmHg
LVP [6]: 105 ± 12 mmHg
LVP change vs before administration [6]: (−1.3 ± 6.7) mmHg
LVW [6]: 1.17 ± 0.44 kg · m
LVW change vs before administration [6]: (0.10 ± 0.11) kg · m
TPR [6]: 5285 ± 2431 dyn · s/cm^5
TPR change vs before administration [6]: (−222 ± 606) dyn · s/cm^5
dp/dt [6]: 1152 ± 313 mmHg/s
dp/dt change vs before administration [6]: (48 ± 63) mmHg/s
−dp/dt [6]: −815 ± 238 mmHg/s
−dp/dt change vs before administration [6]: (37 ± 55) mmHg/s
CF [7]: 49.3 ± 7.3 ml/min/100 g
CF change vs before administration [7]: (−1.9 ± 5.0) ml/min/100 g
CI [7]: 2.07 ± 0.47 L/min/m^2
CI change vs before administration [7]: (0.11 ± 0.22) L/min/m^2
CO [7]: 1.21 ± 0.38 L/min
CO change vs before administration [7]: (0.06 ± 0.13) L/min
CR [7]: 1.42 ± 0.27 mmHg/ml/min/100 g
CR change vs before administration [7]: (0.00 ± 0.17) mmHg/ml/min/100 g
LVEDP [7]: 2.0 ± 1.2 mmHg
LVEDP change vs before administration [7]: (−0.73 ± 0.52) mmHg
LVP [7]: 102 ± 17 mmHg
LVP change vs before administration [7]: (−4.4 ± 5.9) mmHg
LVW [7]: 1.12 ± 0.42 kg · m
LVW change vs before administration [7]: (0.04 ± 0.18) kg · m
TPR [7]: 4925 ± 1674 dyn · s/cm^5
TPR change vs before administration [7]: (−582 ± 764) dyn · s/cm^5
dp/dt [7]: 1078 ± 283 mmHg/s
dp/dt change vs before administration [7]: (−25 ± 109) mmHg/s
−dp/dt [7]: −789 ± 269 mmHg/s
−dp/dt change vs before administration [7]: (64 ± 63) mmHg/s
+LVdp/dtmax maximum increase (0.6 mg/kg iv, at 5-10 min after administration): 22.6±11.8%
CF [8]: 51.2 ± 8.0 ml/min/100 g
CI [8]: 1.96 ± 0.54 L/min/m^2
CO [8]: 1.15 ± 0.40 L/min
CR [8]: 1.41 ± 0.35 mmHg/ml/min/100 g
LVEDP [8]: 2.7 ± 1.3 mmHg
LVP [8]: 106 ± 16 mmHg
LVW [8]: 1.08 ± 0.41 kg · m
TPR [8]: 5507 ± 2267 dyn · s/cm^5
dp/dt [8]: 1104 ± 295 mmHg/s
−dp/dt [8]: −852 ± 244 mmHg/s
duration of LVEDP decrease (0.15, 0.3 and 0.6 mg/kg iv): more than 2 hours
left ventricular work (LVW) (0.15, 0.3 and 0.6 mg/kg iv): no significant change
CF and CR [9]: no significant changes
CO and CI [9]: no significant changes
SBP, DBP, MAP and HR [9]: no significant changes
left ventricular pressure (LVP) [9]: no significant change
total peripheral resistance (TPR) [9]: no significant change
−LVdp/dtmax (0.3 and 0.6 mg/kg iv): no significant effect
